Assays:
Type in all cases: cell-based, human
[1] = test system: ZR75.1 cells; assay: QCM cell migration assay; conditions: ZR75.1, α-MT 2.5 mM, 48 h, p>0.05
Description: (§1) Migration and invasion assays. The influence of α-MT on cell migration and invasion was determined with ZR75.1 cells. The migration of these cells toward fetal bovine serum was measured using the QCM™ cell migration assay kit (Millipore) according to manufacturer's instructions. Serum-starved ZR75.1 cells were allowed to migrate for 48 h in the presence/absence of α-MT (2.5 mM). After removing the cells on the top of the membrane filter, the inserts were stained with 0.1% crystal violet, washed and dried. The crystal violet dye retained on the filters, representing the cells that migrated to the underside of the membrane filter, was extracted with acetic acid. The absorbance of the extract was measured at 570 nm. Cell invasion assay was performed similarly using the QCM™ cell invasion assay kit (Millipore). The inserts used in this assay were coated with ECMATRIX™, representing extracellular matrix.

[2] = test system: MB231 cells; assay: Cell death by propidium iodide staining and FACS cell cycle analysis; conditions: MB231, α-MT 2.5 mM and 3-MA 10 mM, either alone or together, 48 h
Description: (§2) FIGS. 9A to 9D. Influence of α-MT on mTOR activity In FIG. 9A, MCF7 and MB231 cells were treated without or with α-MT (2.5 mM) for 24 h, 48 h, or 72 h, and then the cell lysates were used for western blot. Influence of α-MT with or without 3-MA on cell death. In FIG. 9B, MCF7, MB231, and MCF10A cells were treated for 48 h without or with α-MT (2.5 mM), 3-MA (10 mM), or α-MT (2.5 mM) plus 3-MA (10 mM), and then analyzed for cell death by propidium iodide (PI) staining and FACS-based cell cycle analysis. In FIG. 9C, MCF7 cells were treated for 48 h without or with α-MT (2.5 mM), 3-MA (10 mM), or α-MT (2.5 mM) plus 3-MA (10 mM), and then analyzed for apoptotic cell death by annexin V labeling. In FIG. 9D, MCF7 and MB231 cells were treated without or with 2.5 mM α-MT for 24 h, 48 h, or 72 h. Cell lysates were then used for western blot analysis of lamin A degradation product using an antibody that recognizes specifically the proteolytic cleavage product. β-Actin was used as an internal control.
(§3) Apoptosis assay. Fluorescence-activated cell sorting (FACS) was used to monitor cell death. MCF7 cells were treated with or without α-MT, 3-MA, or α-MT plus 3-MA. Control and treated cells were then fixed in 50% ethanol, treated with 0.1% sodium citrate, 1 mg/ml RNase A, and 50 μg/ml propidium iodide, and then subjected to FACS analysis (FACS Caliber, Becton Dickinson). FITC-labeled annexin V was used to differentiate apoptotic cell death from necrotic cell death.

[3] = test system: MCF10A cells; assay: as above; conditions: α-MT 2.5 mM and 3-MA 10 mM, either alone or together, 48 h
Description: as §2, §3

[4] = test system: MB231 cells; assay: Analysis of autophagy (LC3 localization); conditions: MB231, α-MT 2.5 mM, 48 h
Description: (§4) FIGS. 6A to 6C. Effects of SLC6A14 blockade with α-MT in breast cancer cells. In FIG. 6A, MCF10A (a non-malignant mammary epithelial cell line), MCF7 (an ER-positive breast cancer cell line), and MB231 (an ER-negative breast cancer cell line) cells were treated with or without 2.5 mM α-MT for 24, 48, or 72 h and then used for analysis of asparagine synthetase (ASNS) and CHOP mRNA levels. In FIG. 6B, MCF7, MB231 and MCF10A cells were treated with or without 2.5 mM α-MT for 48 h and then used for immunocytochemical analysis of the constitutively expressed LC-3. In FIG. 6C, MCF7 cells were treated with (“b” and “c”) or without (“a”) α-MT (2.5 mM) for 48 h and then used for electron microscopy. […]
(§5) Analysis of autophagy. Autophagy was analyzed as described previously (Periyasamy-Thandavan et al., 2010, Autophagy; 6:19-35; and Samaddar et al., 2008, Mol Cancer Ther; 7:2977-2987) by monitoring the localization pattern of constitutively expressed LC3 as well as that of ectopically expressed GFP-LC3. […] At the end of the treatment, cells were fixed with 4% paraformaldehyde and examined by fluorescence microscopy to count the number of cells with punctate GFP-LC3. Autophagosomal proteolysis was quantified as described previously (Periyasamy-Thandavan et al., 2010, Autophagy; 6:19-35). […]

[5] = test system: MCF10A cells; assay: Analysis of autophagy (LC3 localization); conditions: α-MT 2.5 mM, 48 h
Description: as §4, §5

[6] = test system: mTOR in MCF7 cells; assay: mTOR activity by western blot (phosphorylation of S6 and S6 kinase); conditions: MCF7, α-MT 2.5 mM, 24, 48 or 72 h
Description: as §2

[7] = test system: mTOR in SLC6A14-negative cells (MB231); assay: as above; conditions: α-MT 2.5 mM, 24, 48 or 72 h
Description: as §2

[8] = test system: ZR75.1 cells; assay: QCM cell invasion assay; conditions: ZR75.1, α-MT 2.5 mM, p>0.05
Description: as §1

## CC(N)(Cc1c[nH]c2ccccc12)C(=O)O (racemic) [α-MT, α-methyl-DL-tryptophan]
[1]
  migration in α-MT-treated cells: 87±7 % of control
[2]
  effect on cell death: very little, if any, effect
[3]
  effect on cell death: very little, if any, effect
[4]
  autophagy (LC3 localization): did not undergo autophagy
[5]
  autophagy (LC3 localization): did not undergo autophagy
[6]
  mTOR inhibition: phosphorylation of S6 and S6 kinase: decreased phosphorylation
[7]
  mTOR activity: not affected
[8]
  invasion in α-MT-treated cells: 95±14 % of control
